Where two headings read alike, the source gives them in different places.
Target: T1, hmGluR1 receptor (Homo sapiens, UniProt Q13255)
T1 construct: expressed in transfected cells; host or cells: CHO
Assay: mGluR1 IC50 determination, FLIPR intracellular calcium mobilization against Quisqualate
Assay type: cell-based
Settings: CHO cell line stably expressing hmGluR1, against Quisqualate 1 μM (EC80), compounds added 10 minutes before
Protocol: A CHO cell line stably expressing hmGluR1 receptor was established. One day prior to assay, cells were split in growth media at concentration of 50,000 cells/well in a volume of 100 μl and seeded into black clear-bottom 96-well plates. After two to six hours, when cells were well attached to the plate, growth medium was replaced with assay medium (100 μL) consisting of DMEM high glucose, supplemented with GPT (1 U/mL) and sodium pyruvate, 1 mM. Following overnight incubation, medium was discarded and cells were loaded for 2 hours with dye from the Calcium 3 Assay Reagent Kit (Molecular Devices, # R8033), prepared according to manufacturers' instructions. […] Test compounds were added 10 minutes before Quisqualate.

T1 sequence (Q13255 19-1194): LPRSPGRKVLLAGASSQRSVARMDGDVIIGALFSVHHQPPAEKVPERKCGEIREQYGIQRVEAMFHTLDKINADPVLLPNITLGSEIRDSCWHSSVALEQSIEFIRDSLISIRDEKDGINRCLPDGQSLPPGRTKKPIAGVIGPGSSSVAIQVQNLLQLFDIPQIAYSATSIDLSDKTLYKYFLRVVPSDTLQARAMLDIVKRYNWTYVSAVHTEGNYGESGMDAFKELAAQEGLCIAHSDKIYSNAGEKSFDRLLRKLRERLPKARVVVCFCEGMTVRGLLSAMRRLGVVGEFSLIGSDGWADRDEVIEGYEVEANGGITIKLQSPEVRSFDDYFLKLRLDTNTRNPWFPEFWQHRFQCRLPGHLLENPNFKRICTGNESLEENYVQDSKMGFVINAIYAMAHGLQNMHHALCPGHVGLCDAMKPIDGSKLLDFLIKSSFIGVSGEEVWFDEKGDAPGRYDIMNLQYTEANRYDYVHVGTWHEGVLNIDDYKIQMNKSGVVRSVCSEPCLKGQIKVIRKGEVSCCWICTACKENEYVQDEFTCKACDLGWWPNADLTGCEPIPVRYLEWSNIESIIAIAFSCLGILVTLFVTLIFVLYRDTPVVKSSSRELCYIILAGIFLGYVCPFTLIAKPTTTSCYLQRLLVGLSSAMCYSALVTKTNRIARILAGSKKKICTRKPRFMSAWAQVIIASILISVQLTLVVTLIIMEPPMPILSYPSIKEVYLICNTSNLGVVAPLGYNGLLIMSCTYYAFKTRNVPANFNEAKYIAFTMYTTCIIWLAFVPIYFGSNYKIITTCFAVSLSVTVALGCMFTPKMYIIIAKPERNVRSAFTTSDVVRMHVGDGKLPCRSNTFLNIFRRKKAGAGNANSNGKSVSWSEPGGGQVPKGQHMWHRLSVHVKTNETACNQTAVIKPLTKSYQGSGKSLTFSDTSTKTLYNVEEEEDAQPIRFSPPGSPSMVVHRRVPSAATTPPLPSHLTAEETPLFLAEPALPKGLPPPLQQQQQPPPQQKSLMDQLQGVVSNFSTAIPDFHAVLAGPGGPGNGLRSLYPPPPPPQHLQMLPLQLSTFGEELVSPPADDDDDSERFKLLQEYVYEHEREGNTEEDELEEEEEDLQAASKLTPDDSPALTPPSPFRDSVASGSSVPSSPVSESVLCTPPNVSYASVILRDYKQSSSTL

Compound | IC50 (read-out: mGluR1 IC50 rating) | IC50 (read-out: mGluR1 IC50)
CN(C)c1ccnc2sc3c(=O)n(-c4ccc(O)cc4)ccc3c12 [9H] | < 20 nM | –
COc1ccnc2sc3c(=O)n(-c4ccc(Cl)cc4)ccc3c12 [16B] | < 20 nM | 3.4 nM
COc1ccnc2sc3c(=O)n(-c4ccc(C)cc4)ccc3c12 [16C] | < 20 nM | 3.9 nM
COc1ccnc2sc3c(=O)n(-c4ccc(Br)cc4)ccc3c12 [16E] | < 20 nM | 4.8 nM
COc1ccnc2sc3c(=O)n(-c4ccc5ncsc5c4)ccc3c12 [16F] | 20 to 100 nM | –
COc1ccnc2sc3c(=O)n(-c4ccc5scnc5c4)ccc3c12 [16G] | < 20 nM | –
COc1ccnc2sc3c(=O)n(-c4ccc(F)cc4)ccc3c12 [16H] | < 20 nM | –
COc1ccc(-n2ccc3c(sc4nccc(OC)c43)c2=O)cc1F [16I] | < 20 nM | –
COc1ccnc2sc3c(=O)n(-c4ccccc4)ccc3c12 [16M] | < 20 nM | –
COc1ccnc2sc3c(=O)n(-c4ccc5c(c4)OCO5)ccc3c12 [16O] | < 20 nM | –
COc1ccnc2sc3c(=O)n(-c4ccc5c(c4)OCCO5)ccc3c12 [16P] | 20 to 100 nM | –
COc1ccnc2sc3c(=O)n(-c4ccc5occc5c4)ccc3c12 [16Q] | < 20 nM | –
COc1ccnc2sc3c(=O)n(-c4cccc(Cl)c4)ccc3c12 [16R] | < 20 nM | –
COc1ccnc2sc3c(=O)n(-c4cccc(C)c4)ccc3c12 [16T] | < 20 nM | –
COc1ccnc2sc3c(=O)n(-c4ccccc4Cl)ccc3c12 [16U] | 20 to 100 nM | –
COc1ccnc2sc3c(=O)n(-c4ccc(C#N)cc4)ccc3c12 [16X] | 20 to 100 nM | –
O=c1c2sc3nccc(O)c3c2ccn1-c1ccc(Cl)cc1 [17B] | 100 to 1000 nM | –
Cc1ccc(-n2ccc3c(sc4nccc(O)c43)c2=O)cc1 [17C] | 100 to 1000 nM | –
COc1ccc(-n2ccc3c(sc4nccc(NCCCCO)c43)c2=O)cc1 [19AA] | 20 to 100 nM | –
Cc1ccc(-n2ccc3c(sc4nccc(N)c43)c2=O)cc1 [19AC] | 20 to 100 nM | –
C#CCNc1ccnc2sc3c(=O)n(-c4ccc(Cl)cc4)ccc3c12 [19AE] | < 20 nM | –
C#CCNc1ccnc2sc3c(=O)n(-c4ccc(C)cc4)ccc3c12 [19AG] | < 20 nM | –
COc1ccc(-n2ccc3c(sc4nccc(NCCCCCO)c43)c2=O)cc1 [19AH] | 20 to 100 nM | –
CCNc1ccnc2sc3c(=O)n(-c4ccc(F)cc4)ccc3c12 [19AL] | 20 to 100 nM | –
O=c1c2sc3nccc(NC4CC4)c3c2ccn1-c1ccc(F)cc1 [19AM] | 20 to 100 nM | –
C#CCNc1ccnc2sc3c(=O)n(-c4ccc(F)cc4)ccc3c12 [19AN] | 20 to 100 nM | –
C#CCNc1ccnc2sc3c(=O)n(-c4ccc(OC)c(F)c4)ccc3c12 [19AO] | 100 to 1000 nM | –

Compound | IC50 (read-out: mGluR1 IC50 rating) | IC50 (read-out: mGluR1 IC50)
CCNc1ccnc2sc3c(=O)n(-c4ccc5scnc5c4)ccc3c12 [19AQ] | 20 to 100 nM | –
O=c1c2sc3nccc(NC4CC4)c3c2ccn1-c1ccc2scnc2c1 [19AR] | 20 to 100 nM | –
CCNc1ccnc2sc3c(=O)n(-c4ccc(OC)c(F)c4)ccc3c12 [19AU] | < 20 nM | –
COc1ccc(-n2ccc3c(sc4nccc(NC5CC5)c43)c2=O)cc1F [19AV] | < 20 nM | 9.8 nM
C#CCNc1ccnc2sc3c(=O)n(-c4ccc(Br)cc4)ccc3c12 [19AZ] | < 20 nM | –
CCNc1ccnc2sc3c(=O)n(-c4ccc(C#N)cc4)ccc3c12 [19BB] | 20 to 100 nM | –
N#Cc1ccc(-n2ccc3c(sc4nccc(NC5CC5)c43)c2=O)cc1 [19BC] | 20 to 100 nM | –
CCNc1ccnc2sc3c(=O)n(-c4ccc(OC)cc4F)ccc3c12 [19BG] | 20 to 100 nM | –
COc1ccc(-n2ccc3c(sc4nccc(NC5CC5)c43)c2=O)c(F)c1 [19BH] | 20 to 100 nM | –
COCCNc1ccnc2sc3c(=O)n(-c4ccc(C)cc4)ccc3c12 [19C] | 20 to 100 nM | –
C[C@@H](O)CNc1ccnc2sc3c(=O)n(-c4ccc(Cl)cc4)ccc3c12 [19E] | 20 to 100 nM | –
O=c1c2sc3nccc(NCCO)c3c2ccn1-c1ccc(Cl)cc1 [19F] | < 20 nM | –
COCCNc1ccnc2sc3c(=O)n(-c4ccc(Cl)cc4)ccc3c12 [19G] | 20 to 100 nM | –
COCCCNc1ccnc2sc3c(=O)n(-c4ccc(Cl)cc4)ccc3c12 [19H] | 20 to 100 nM | –
O=c1c2sc3nccc(NCC(F)(F)F)c3c2ccn1-c1ccc(Cl)cc1 [19I] | 20 to 100 nM | –
COCCNc1ccnc2sc3c(=O)n(-c4ccc(O)cc4)ccc3c12 [19J] | > 1000 nM | –
Cc1ccc(-n2ccc3c(sc4nccc(NCCO)c43)c2=O)cc1 [19L] | 20 to 100 nM | –
Cc1ccc(-n2ccc3c(sc4nccc(NC[C@@H](C)O)c43)c2=O)cc1 [19M] | 20 to 100 nM | –
Cc1ccc(-n2ccc3c(sc4nccc(NCC(F)(F)F)c43)c2=O)cc1 [19R] | 20 to 100 nM | –
COc1ccc(-n2ccc3c(sc4nccc(NCC(F)(F)F)c43)c2=O)cc1 [19S] | 20 to 100 nM | –
COc1ccc(-n2ccc3c(sc4nccc(N(C)N)c43)c2=O)cc1 [19U] | < 20 nM | –
COCCCNc1ccnc2sc3c(=O)n(-c4ccc(OC)cc4)ccc3c12 [19W] | 20 to 100 nM | –
C#CCNc1ccnc2sc3c(=O)n(-c4ccc(OC)cc4)ccc3c12 [19X] | 20 to 100 nM | –
COc1ccc(-n2ccc3c(sc4nccc(NCCCO)c43)c2=O)cc1 [19Y] | 20 to 100 nM | –
COc1ncnc2sc3c(=O)n(-c4ccc(C)cc4)ccc3c12 [23A] | < 20 nM | –
COc1ccc(-n2ccc3c(sc4ncnc(OC)c43)c2=O)cc1 [23B] | 100 to 1000 nM | –
COc1ncnc2sc3c(=O)n(-c4ccc(Cl)cc4)ccc3c12 [23C] | 20 to 100 nM | –

Source: US7767815B2, “Fused tricyclic mGluR1 antagonists as therapeutic agents” (Schering Corporation, priority 2005, dated 2010)
